Experimental data as given in ChEMBL document CHEMBL1201862, “PubChem BioAssay data set” (2004).
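These data come from cells grown in 96-well plates and exposed to compound for 48 hours at five concentrations. The concentration for 50% growth inhibition is given as GI50.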 The source made the active and inactive calls. No stated cut-off is given here; in the data, active = GI50 up to about 1.1 µM and inactive = higher.

Experiments:
Assay in all cases: DTP human tumour cell line panel, 48 h
KM-20L2 = test system: KM-20L2
KM12 = test system: KM12
SN12C = test system: SN12C
A549 = test system: A549
NCI-H226 = test system: NCI-H226
Malme-3M = test system: Malme-3M
HOP-92 = test system: HOP-92
SR = test system: SR
SW-620 = test system: SW-620
HCT-15 = test system: HCT-15
SK-MEL-2 = test system: SK-MEL-2
OVCAR-8 = test system: OVCAR-8
SNB-75 = test system: SNB-75
SF-539 = test system: SF-539
SK-MEL-28 = test system: SK-MEL-28
UACC-257 = test system: UACC-257
NCI-H460 = test system: NCI-H460
HL-60 = test system: HL-60
OVCAR-3 = test system: OVCAR-3

Structure (SMILES)	GI50 (KM-20L2)	GI50 (KM12)	GI50 (SN12C)	GI50 (A549)	GI50 (NCI-H226)	GI50 (Malme-3M)	GI50 (HOP-92)	GI50 (SR)	GI50 (SW-620)	GI50 (HCT-15)	GI50 (SK-MEL-2)	GI50 (OVCAR-8)	GI50 (SNB-75)	GI50 (SF-539)	GI50 (SK-MEL-28)	GI50 (UACC-257)	GI50 (NCI-H460)	GI50 (HL-60)	GI50 (OVCAR-3)
C/C(=N\NS(=O)(=O)c1ccc(C)cc1)c1c(O)cc(C)oc1=O	> 100 µM (inactive)	> 100 µM (inactive)	> 100 µM (inactive)	> 100 µM (inactive)	> 100 µM (inactive)	> 100 µM (inactive)	> 100 µM (inactive)	> 100 µM (inactive)	> 100 µM (inactive)	> 100 µM	> 100 µM (inactive)	> 100 µM (inactive)	> 100 µM (inactive)	> 100 µM (inactive)	> 100 µM (inactive)	> 100 µM (inactive)	> 100 µM (inactive)	> 100 µM (inactive)	–
N#CCN1C(=O)c2cccc3cc([N+](=O)[O-])cc(c23)C1=O	45.2 µM (inactive)	32 µM (inactive)	29.4 µM (inactive)	40.1 µM (inactive)	17.3 µM (inactive)	33.6 µM (inactive)	99.1 µM (inactive)	5.69 µM (inactive)	36.5 µM (inactive)	28 µM	0.745 µM (active)	38.9 µM (inactive)	38 µM (inactive)	33 µM (inactive)	35.2 µM (inactive)	24.3 µM (inactive)	29 µM (inactive)	23.8 µM (inactive)	29.4 µM (inactive)
Cc1cc(C)c(-c2noc(-c3ccc(Cl)cc3)c2C2=NCCN2)c(C)c1	22.2 µM (inactive)	21.6 µM (inactive)	20.3 µM (inactive)	32.4 µM (inactive)	23.8 µM (inactive)	20.4 µM (inactive)	–	16.4 µM (inactive)	32.4 µM (inactive)	22.2 µM	22.6 µM (inactive)	> 10 µM (inactive)	17.1 µM (inactive)	16.8 µM (inactive)	17.7 µM (inactive)	17.5 µM (inactive)	13.8 µM (inactive)	14.4 µM (inactive)	21 µM (inactive)
N#Cc1cc([N+](=O)[O-])ccc1NC(=O)C(=O)C(C(=O)c1ccc2ccccc2c1)C1OCc2ccccc21 (stereo not drawn)	20.7 µM (inactive)	15.4 µM (inactive)	13.7 µM (inactive)	10.7 µM (inactive)	1.68 µM (inactive)	8.41 µM (inactive)	7.01 µM (inactive)	2.88 µM (inactive)	6.27 µM (inactive)	7.8 µM	10.9 µM (inactive)	5.43 µM (inactive)	4.23 µM (inactive)	1.82 µM (inactive)	4.18 µM (inactive)	9.33 µM (inactive)	4.38 µM (inactive)	12.2 µM (inactive)	3.06 µM (inactive)
CC1OC(OP(=O)(OCc2ccccc2)OCc2ccccc2)C(OC(=O)c2ccccc2)C(OC(=O)c2ccccc2)C1I (stereo not drawn)	51.2 µM (inactive)	35 µM (inactive)	20.9 µM (inactive)	26.4 µM (inactive)	–	39.4 µM (inactive)	–	17.5 µM (inactive)	72.8 µM (inactive)	45.9 µM	23.8 µM (inactive)	98.4 µM (inactive)	9.31 µM (inactive)	–	86.7 µM (inactive)	39.3 µM (inactive)	34 µM (inactive)	20.7 µM (inactive)	46 µM (inactive)
O=C(N/N=C(\C1=Nc2ccc(Cl)cc2NC1O)C(O)/C=C/c1ccccc1)c1ccncc1 (stereo not drawn)	> 100 µM (inactive)	> 100 µM (inactive)	> 100 µM (inactive)	> 100 µM (inactive)	> 100 µM (inactive)	> 100 µM (inactive)	54.5 µM (inactive)	> 100 µM (inactive)	> 100 µM (inactive)	> 100 µM	–	> 100 µM (inactive)	> 100 µM (inactive)	> 100 µM (inactive)	> 100 µM (inactive)	> 100 µM (inactive)	> 100 µM (inactive)	> 100 µM (inactive)	> 100 µM (inactive)
COC(=O)C(=O)CC(=O)CCn1[nH]c(=O)c(Cl)c(Cl)c1=O	> 100 µM (inactive)	> 100 µM (inactive)	> 100 µM (inactive)	> 100 µM (inactive)	> 100 µM (inactive)	> 100 µM (inactive)	> 100 µM (inactive)	–	> 100 µM (inactive)	> 100 µM	> 100 µM (inactive)	> 100 µM (inactive)	> 100 µM (inactive)	> 100 µM (inactive)	> 100 µM (inactive)	> 100 µM (inactive)	> 100 µM (inactive)	> 100 µM (inactive)	> 100 µM (inactive)
N#CC1(Cc2ccc(N)cc2)c2ccccc2C=CN1C(=O)c1ccccc1 (stereo not drawn)	34.1 µM (inactive)	47.5 µM (inactive)	41.2 µM (inactive)	35.7 µM (inactive)	39.2 µM (inactive)	24.4 µM (inactive)	33.6 µM (inactive)	24.8 µM (inactive)	68.2 µM (inactive)	–	9.29 µM (inactive)	40.6 µM (inactive)	29.3 µM (inactive)	60.5 µM (inactive)	79.3 µM (inactive)	39.7 µM (inactive)	–	15.8 µM (inactive)	43.9 µM (inactive)
ClCCN(CC#CCCCC#CCN(CCCl)CCCl)CCCl	13.8 µM (inactive)	19.2 µM (inactive)	7.21 µM (inactive)	8.99 µM (inactive)	12.9 µM (inactive)	14.2 µM (inactive)	18.4 µM (inactive)	2.03 µM (inactive)	10.2 µM (inactive)	12.4 µM	13 µM (inactive)	11 µM (inactive)	10.3 µM (inactive)	8.36 µM (inactive)	19.1 µM (inactive)	13.8 µM (inactive)	2.73 µM (inactive)	1.26 µM (inactive)	11.6 µM (inactive)
CN(C)/C=N/c1nc2c(ncn2C2OC(CO)C(O)C2O)c(=O)[nH]1 (stereo not drawn)	> 100 µM (inactive)	> 100 µM (inactive)	> 100 µM (inactive)	> 100 µM (inactive)	> 100 µM (inactive)	> 100 µM (inactive)	> 100 µM (inactive)	> 100 µM (inactive)	> 100 µM (inactive)	> 100 µM	> 100 µM (inactive)	> 100 µM (inactive)	> 100 µM (inactive)	> 100 µM (inactive)	–	> 100 µM (inactive)	> 100 µM (inactive)	> 100 µM (inactive)	> 100 µM (inactive)
CC(C)(C)C1CCC(O)(c2ccccc2)CC1 (stereo not drawn)	> 100 µM (inactive)	> 100 µM (inactive)	69.5 µM (inactive)	> 100 µM (inactive)	> 100 µM (inactive)	> 100 µM (inactive)	–	33.4 µM (inactive)	> 100 µM (inactive)	94.2 µM	> 100 µM (inactive)	88.3 µM (inactive)	86.7 µM (inactive)	> 100 µM (inactive)	> 100 µM (inactive)	54.6 µM (inactive)	> 100 µM (inactive)	27.4 µM (inactive)	70.1 µM (inactive)
